Laboratory results from patent US6750034B1, “DNA encoding human serine protease D-G” (Ortho-McNeil Pharmaceutical, Inc., priority 2000, dated 2004).
[ ]: non-standard residue; d: D form. The star is where a group is joined. pNA = O=[N+]([O-])c1ccc(N*)cc1; Cbz = O=C(OCc1ccccc1)*

Biological target: T1, activated protease D-G-6×HIS (Homo sapiens, UniProt Q9NRS4)
T1 construct: enterokinase cleavage site from human trypsinogen I (EK) (N, cleaved yes); made in house; host or cells: Sf9 insect cells, baculovirus (pFastBac 1)
T1 sequence (Q9NRS4 205-434 limits assumed): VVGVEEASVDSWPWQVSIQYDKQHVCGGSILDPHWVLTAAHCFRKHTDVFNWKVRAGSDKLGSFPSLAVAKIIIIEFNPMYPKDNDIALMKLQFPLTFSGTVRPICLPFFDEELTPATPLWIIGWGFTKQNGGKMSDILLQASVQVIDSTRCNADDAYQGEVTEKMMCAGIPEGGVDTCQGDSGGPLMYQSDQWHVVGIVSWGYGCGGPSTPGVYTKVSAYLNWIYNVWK
Assay: Chromogenic (amidolytic) assay, release of pNA from synthetic substrates
Assay type: biochemical
Details: recombinant activated protease D-G-6×HIS; substrate 500 uM; 10 mM TRIS-HCl pH 7.8, 25 mM NaCl, 25 mM imidazole; 37° C., 120 min, 405 nm; N.A. = No Activity
Description: Amidolytic activities of the activated serine proteases are monitored by release of para-nitroaniline (pNA) from synthetic substrates that are commercially available (Bachem California Inc., Torrance, […].; American Diagnostica Inc., Greenwich, Conn.; Kabi Pharmacia Hepar Inc., Franklin, Ohio). Assay mixtures contain chromogenic substrates in 500 uM and 10 mM TRIS-HCl (pH 7.8), 25 mM NaCl, and 25 mM imidazole. Release of pNA is measured over 120 min at 37° C. on a micro-plate reader (Molecular Devices, Menlo Park, Calif.) with a 405 nm absorbance filter. The initial reaction rates (Vmax, mOD/min) are determined from plots of absorbance versus time using Softmax (Molecular Devices, Menlo Park, Calif.). The specific activities (nmole pNA produced/min/ug protein) of the activated protease D-G-6×HIS for the various substrates are presented in Table 1.
Table 1—The specific activity (nmole pNA produced/min/ug protein) of recombinant activated protease D-G-6×HIS, determined for the various substrates analyzed, is shown.

Substance | Specific Activity
H-[dV]-Leu-Arg-pNA | 0.025 ± 0.003 nmole pNA produced/min/ug protein
H-D-Pro-HHT-Arg-pNA | 0.046 ± 0.001 nmole pNA produced/min/ug protein
H-D-LYS(CBO)-Pro-Arg-pNA | 0.076 ± 0.008 nmole pNA produced/min/ug protein
H-[dV]-Leu-Lys-pNA | 0.034 ± 0.003 nmole pNA produced/min/ug protein
Cbz-Phe-Arg-pNA | 0.116 ± 0.006 nmole pNA produced/min/ug protein
